From article PMC4649089, “Urea Unfolding Study of E. coli Alanyl-tRNA Synthetase and Its Monomeric Variants Proves the Role of C-Terminal Domain in Stability” (Journal of Amino Acids, 2015)

T1: alaRS (Escherichia coli, UniProt P00957, G675D)
T1 construct: gene alaS; full length, 875 residues, N-terminal His tag (pET28a), expressed in E. coli BL21(DE3), homodimer, 192500 Da
T1 sequence (P00957 2-876 G675D): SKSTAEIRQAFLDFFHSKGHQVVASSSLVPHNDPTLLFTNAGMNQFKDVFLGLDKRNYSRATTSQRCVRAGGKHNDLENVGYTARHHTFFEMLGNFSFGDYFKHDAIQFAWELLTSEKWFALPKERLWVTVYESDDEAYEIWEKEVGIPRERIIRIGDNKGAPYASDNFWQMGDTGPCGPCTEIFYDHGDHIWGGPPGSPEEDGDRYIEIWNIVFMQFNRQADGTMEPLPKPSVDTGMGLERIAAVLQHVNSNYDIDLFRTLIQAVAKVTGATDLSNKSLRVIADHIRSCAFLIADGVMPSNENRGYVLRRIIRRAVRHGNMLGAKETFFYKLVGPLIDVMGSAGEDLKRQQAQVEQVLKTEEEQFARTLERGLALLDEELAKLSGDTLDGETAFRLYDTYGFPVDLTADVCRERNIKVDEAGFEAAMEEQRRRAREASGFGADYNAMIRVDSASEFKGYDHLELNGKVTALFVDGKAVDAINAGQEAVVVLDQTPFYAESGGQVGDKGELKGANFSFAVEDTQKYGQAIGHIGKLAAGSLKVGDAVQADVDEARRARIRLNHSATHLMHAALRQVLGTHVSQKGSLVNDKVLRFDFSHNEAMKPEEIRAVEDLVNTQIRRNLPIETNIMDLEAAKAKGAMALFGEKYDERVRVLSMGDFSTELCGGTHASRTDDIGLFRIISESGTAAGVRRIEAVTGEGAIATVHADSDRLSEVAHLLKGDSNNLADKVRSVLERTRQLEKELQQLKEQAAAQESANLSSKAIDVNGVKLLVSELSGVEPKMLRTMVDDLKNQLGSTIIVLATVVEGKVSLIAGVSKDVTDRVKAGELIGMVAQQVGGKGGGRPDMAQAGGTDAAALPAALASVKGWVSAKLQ

T2: WT-alaRS (Escherichia coli, UniProt P00957)
T2 construct: gene alaS; full length, 875 residues, N-terminal His tag (pET28a), expressed in E. coli BL21(DE3), homodimer, 192500 Da
T2 sequence (P00957 2-876): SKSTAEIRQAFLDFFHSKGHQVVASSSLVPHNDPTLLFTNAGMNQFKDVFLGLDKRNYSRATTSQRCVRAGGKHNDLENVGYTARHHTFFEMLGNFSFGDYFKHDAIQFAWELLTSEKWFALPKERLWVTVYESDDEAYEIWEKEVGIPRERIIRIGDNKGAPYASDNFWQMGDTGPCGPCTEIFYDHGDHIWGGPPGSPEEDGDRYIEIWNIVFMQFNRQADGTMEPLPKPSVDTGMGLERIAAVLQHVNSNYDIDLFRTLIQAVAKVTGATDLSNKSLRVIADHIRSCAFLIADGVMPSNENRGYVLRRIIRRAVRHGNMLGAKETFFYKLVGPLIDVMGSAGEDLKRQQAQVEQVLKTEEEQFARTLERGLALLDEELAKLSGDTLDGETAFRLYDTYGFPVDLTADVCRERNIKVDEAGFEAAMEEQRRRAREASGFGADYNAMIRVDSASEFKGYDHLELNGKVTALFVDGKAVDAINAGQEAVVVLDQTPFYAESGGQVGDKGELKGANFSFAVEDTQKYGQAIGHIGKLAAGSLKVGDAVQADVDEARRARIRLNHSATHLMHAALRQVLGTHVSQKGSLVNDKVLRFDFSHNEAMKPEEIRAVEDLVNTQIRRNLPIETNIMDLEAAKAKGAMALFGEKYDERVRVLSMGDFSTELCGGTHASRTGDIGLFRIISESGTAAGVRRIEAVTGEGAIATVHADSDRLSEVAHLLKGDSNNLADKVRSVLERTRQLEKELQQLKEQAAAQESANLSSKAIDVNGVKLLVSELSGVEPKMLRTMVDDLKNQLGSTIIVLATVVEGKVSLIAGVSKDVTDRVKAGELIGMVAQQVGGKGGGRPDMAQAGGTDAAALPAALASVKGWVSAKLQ

T3: N700 alaRS (Escherichia coli, UniProt P00957)
T3 construct: gene alaS; N-terminal residues 1-700, N-terminal His tag (pET20a), expressed in E. coli BL21(DE3), monomer, 77000 Da
T3 sequence (P00957 2-701): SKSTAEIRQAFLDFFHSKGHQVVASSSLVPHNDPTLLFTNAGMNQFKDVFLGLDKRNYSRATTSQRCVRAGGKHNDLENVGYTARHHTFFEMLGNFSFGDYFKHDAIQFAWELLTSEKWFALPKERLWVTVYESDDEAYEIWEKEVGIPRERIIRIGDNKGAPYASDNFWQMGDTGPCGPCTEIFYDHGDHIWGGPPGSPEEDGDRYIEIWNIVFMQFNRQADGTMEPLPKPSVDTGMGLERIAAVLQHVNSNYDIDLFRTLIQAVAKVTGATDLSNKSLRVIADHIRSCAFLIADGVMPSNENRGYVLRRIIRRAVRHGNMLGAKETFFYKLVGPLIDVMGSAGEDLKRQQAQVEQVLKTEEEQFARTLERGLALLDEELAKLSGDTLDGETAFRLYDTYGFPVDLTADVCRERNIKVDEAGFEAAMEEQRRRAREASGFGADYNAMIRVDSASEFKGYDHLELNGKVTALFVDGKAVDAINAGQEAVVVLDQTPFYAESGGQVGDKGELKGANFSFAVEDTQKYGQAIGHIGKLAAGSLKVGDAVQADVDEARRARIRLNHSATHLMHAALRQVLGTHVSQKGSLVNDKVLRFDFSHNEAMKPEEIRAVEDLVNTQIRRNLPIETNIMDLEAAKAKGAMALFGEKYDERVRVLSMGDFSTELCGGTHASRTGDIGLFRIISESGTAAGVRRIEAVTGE

T4: N461 alaRS (Escherichia coli, UniProt P00957)
T4 construct: gene alaS; N-terminal residues 1-461 (aminoacylation and tRNA recognition domain), N-terminal His tag (pET28a), expressed in E. coli BL21(DE3), monomer, 50710 Da
T4 sequence (P00957 2-462): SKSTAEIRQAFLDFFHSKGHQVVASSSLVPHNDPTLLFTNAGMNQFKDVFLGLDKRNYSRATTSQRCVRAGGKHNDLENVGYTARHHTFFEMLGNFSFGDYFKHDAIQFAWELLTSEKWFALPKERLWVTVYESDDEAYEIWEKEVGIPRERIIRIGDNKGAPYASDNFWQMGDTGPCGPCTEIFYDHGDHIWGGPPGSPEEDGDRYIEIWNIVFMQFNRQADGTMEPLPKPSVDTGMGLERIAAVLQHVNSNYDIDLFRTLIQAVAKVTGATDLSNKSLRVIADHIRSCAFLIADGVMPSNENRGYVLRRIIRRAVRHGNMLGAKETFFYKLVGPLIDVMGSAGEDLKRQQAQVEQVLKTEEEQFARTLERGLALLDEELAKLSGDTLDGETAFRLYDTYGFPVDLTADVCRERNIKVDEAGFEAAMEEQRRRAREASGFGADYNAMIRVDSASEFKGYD


Tests used:
[1] = target: T1, alaRS; test: ANS fluorescence titration; type: binding; conditions: read-out: dissociation constant
[2] = target: T2, WT-alaRS; test: ANS fluorescence titration; type: binding; conditions: read-out: dissociation constant
[3] = target: T3, N700 alaRS; test: ANS fluorescence titration; type: binding; conditions: read-out: dissociation constant
[4] = target: T4, N461 alaRS; test: ANS fluorescence titration; type: binding; conditions: read-out: dissociation constant
[5] = target: the molecule itself; test: AUC; sedimentation equilibrium, loading concentrations 5 μM, 10 μM and 20 μM (monomer), 20°C, 100 mM Tris-HCl pH 8.0, global single-species fit in SEDPHAT

Molecule | Kd [1] | Kd [2] | Kd [3] | Kd [4] | stoichiometry N [5]
O=S(=O)(O)c1cccc2cccc(Nc3ccccc3)c12 [ANS] | 1000 to 5000 nM | 1000 to 5000 nM | 1000 to 5000 nM | 1000 to 5000 nM | –
wild type E. coli alanyl-tRNA synthetase (enzyme, UniProt P00957 1-876, looked up, alanyl-tRNA synthetase (alaRS), E. coli, full length, printed as 875 residues per subunit; Clone was a gift from Paul Schimmel; homodimer by sedimentation equilibrium and velocity; also called WT-alaRS; WT; source: E. coli BL21 (DE3), pET28a, purified (Ni-NTA agarose)) MSKSTAEIRQAFLDFFHSKGHQVVASSSLVPHNDPTLLFTNAGMNQFKDVFLGLDKRNYSRATTSQRCVRAGGKHNDLENVGYTARHHTFFEMLGNFSFGDYFKHDAIQFAWELLTSEKWFALPKERLWVTVYESDDEAYEIWEKEVGIPRERIIRIGDNKGAPYASDNFWQMGDTGPCGPCTEIFYDHGDHIWGGPPGSPEEDGDRYIEIWNIVFMQFNRQADGTMEPLPKPSVDTGMGLERIAAVLQHVNSNYDIDLFRTLIQAVAKVTGATDLSNKSLRVIADHIRSCAFLIADGVMPSNENRGYVLRRIIRRAVRHGNMLGAKETFFYKLVGPLIDVMGSAGEDLKRQQAQVEQVLKTEEEQFARTLERGLALLDEELAKLSGDTLDGETAFRLYDTYGFPVDLTADVCRERNIKVDEAGFEAAMEEQRRRAREASGFGADYNAMIRVDSASEFKGYDHLELNGKVTALFVDGKAVDAINAGQEAVVVLDQTPFYAESGGQVGDKGELKGANFSFAVEDTQKYGQAIGHIGKLAAGSLKVGDAVQADVDEARRARIRLNHSATHLMHAALRQVLGTHVSQKGSLVNDKVLRFDFSHNEAMKPEEIRAVEDLVNTQIRRNLPIETNIMDLEAAKAKGAMALFGEKYDERVRVLSMGDFSTELCGGTHASRTGDIGLFRIISESGTAAGVRRIEAVTGEGAIATVHADSDRLSEVAHLLKGDSNNLADKVRSVLERTRQLEKELQQLKEQAAAQESANLSSKAIDVNGVKLLVSELSGVEPKMLRTMVDDLKNQLGSTIIVLATVVEGKVSLIAGVSKDVTDRVKAGELIGMVAQQVGGKGGGRPDMAQAGGTDAAALPAALASVKGWVSAKLQ | – | – | – | – | 2
